Measured values: US7312358B2, “Pharmaceutically active sulfanilide derivatives” (Laboratoires Serono SA, priority 2000, dated 2007)

Legend:
hOT receptor = molecular target: T1, hOT receptor (Homo sapiens, UniProt P30559); experiment: In vitro competition binding assay on hOT receptor with scintillating proximity assay; conditions: membranes from HEK293EBNA cells expressing hOT receptor; radiolabel [125I]-OVTA; SPA; read-out: Binding Affinity Human OT-R Ki
T1 construct: expressed in transfected cells; host or cells: HEK293EBNA cells (membranes)
T1 sequence (P30559 1-389): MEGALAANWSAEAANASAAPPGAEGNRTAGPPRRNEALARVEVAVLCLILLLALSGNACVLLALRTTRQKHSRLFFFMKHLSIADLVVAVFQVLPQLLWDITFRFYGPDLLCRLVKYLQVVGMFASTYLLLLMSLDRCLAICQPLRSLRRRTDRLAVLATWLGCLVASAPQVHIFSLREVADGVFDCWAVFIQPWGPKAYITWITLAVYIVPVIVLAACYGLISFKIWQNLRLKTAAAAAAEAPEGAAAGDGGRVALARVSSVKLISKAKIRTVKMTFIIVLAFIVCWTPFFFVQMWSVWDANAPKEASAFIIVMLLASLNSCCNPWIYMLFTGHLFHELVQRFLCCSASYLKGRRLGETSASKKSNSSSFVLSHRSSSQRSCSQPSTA
Description: a) In Vitro Competition Binding Assay on hOT Receptor with Scintillating Proximity Assay (Pharmaceutical Manufacturing International, 1992, p. 49-53 by Cook, N. D. et al)
This assays allows to determine the affinity of the test compounds for the OT receptor. Membranes from HEK293EBNA cells expressing the hOT receptor were resuspended in buffer containing 50 mM Tris-HCl, pH 7.4, 5 mM MgCl2 and 0.1% BSA (w/v). The membranes (2-4 μg) were mixed with 0.1 mg wheat-germ aglutinin (WGA) SPA bead (type A) and 0.2 nM of the radiolabel [^125I]-OVTA (OVTA being […] and is an analogue of OT for competition binding experiments). Non-specific binding was determined in the presence of 1 μM Oxytocin. The total assay volume was 100 μl. The plates (Corning (D NBS plate) were incubated at room temperature for 30 min and counted on a Mibrobeta plate counter. The tests compounds were used in concentrations of 30 μM, 10 μM, 1 μM, 300 nM, 100 nM, 10 nM, 1 nM, 100 pM, 10 pM. The competition binding data were analysed using the iterative, nonlinear, curve-fitting program, “Prism”.
The binding affinities to the oxytocin receptor of the sulfanilide derivatives claimed in the formula I were assessed using the above described in vitro biological assay. The values refer to the binding affinity (IC50; μM) of the example compounds according to formula I to the Oxytocin receptor. From the values shown in Table 1 it can be derived that said test compounds according to formula I do show a significant binding to the oxytocin receptor.

| Molecule | melting point | Ki (hOT receptor) |
| --- | --- | --- |
| COc1ccc(S(=O)(=O)N(CC(=O)N/N=C2/C(=O)Nc3ccccc32)c2ccc(C)cc2)cc1 [Example 9, 4-methoxy-N-(4-methylphenyl)-N-{2-oxo-2-[2-(2-oxo-1,2-dihydro-3H-indol-3-ylidene)hydrazino]ethyl}benzenesulfonamide] | 134 to 135 °C |  |
| Cc1ccc(N(CC(=O)N/N=C2\C(=O)Nc3ccccc32)S(=O)(=O)c2ccc(OCCCN(C)C)cc2)cc1 [Example 59, 4-[3-(Dimethylamino)propoxy]-N-(4-methylphenyl)-N-{2-oxo-2-[(2Z)-2-(2-oxo-1,2-dihydro-3H-indol-3-ylidene)hydrazino]ethyl}benzenesulfonamide] |  | 0.3 nM |
| CCOc1ccc(S(=O)(=O)N(CC(=O)N/N=C\c2ccccc2O)c2ccc(C)cc2)cc1 [Example 15, 4-ethoxy-N-{2-[2-(2-hydroxybenzylidene)hydrazino]-2-oxoethyl}-N-(4-methylphenyl)benzenesulfonamide] |  | 1.2 nM |
| O=C(CN(c1ccc(Cl)cc1)S(=O)(=O)c1ccc(OCc2cccs2)cc1)N/N=C1\C(=O)Nc2ccccc21 [Example 60, N-(4-chlorophenyl)-N-{2-oxo-2-[(2Z)-2-(2-oxo-1,2-dihydro-3H-indol-3-ylidene)hydrazino]ethyl}-4-(2-thienylmethoxy)benzenesulfonamide] |  | 53.3 nM |
| CCCCOc1ccc(S(=O)(=O)N(CC(=O)N/N=C2/C(=O)Nc3ccccc32)c2ccc(C)cc2)cc1 [Example 30, 4-Butoxy-N-(4-methylphenyl)-N-{2-oxo-2-[(2E)-2-(2-oxo-1.2-dihydro-3H-indol-3-ylidene)hydrazino]ethyl}benzenesulfonamide] | 111 to 112 °C |  |
| COc1ccc(-c2ccc(S(=O)(=O)N(CC(=O)N/N=C3\C(=O)Nc4ccccc43)c3ccc(C)cc3)cc2)cc1 [Example 19, 4′-methoxy-N-(4-methylphenyl)-N-{2-oxo-2-[2-(2-oxo-1,2-dihydro-3H-indol-3-ylidene)hydrazino]ethyl}[1,1′-biphenyl]-4-sulfonamide] | 235 to 236 °C |  |
| CCOc1ccc(S(=O)(=O)N(CC(=O)N/N=C2/C(=O)Nc3ccc(I)cc32)c2ccccc2)cc1 [Example 4, 4-ethoxy-N-{2-[2-(5-iodo-2-oxo-1,2-dihydro-3H-indol-3-ylidene)hydrazino]-2-oxoethyl}-N-phenylbenzenesulfonamide] | 233 to 234 °C |  |
| O=C(CN(c1ccc(Br)cc1)S(=O)(=O)c1ccccc1)Nc1cccc2cccnc12 [2-[Benzenesulfonyl-(4-bromo-phenyl)-amino]-N-quinolin-8-yl-acetamide] |  | 192 nM |
| Cc1ccc(N(CC(=O)N/N=C2/C(=O)Nc3ccccc32)S(=O)(=O)c2ccc(Oc3ccccc3)cc2)cc1 [Example 14, N-(4-methylphenyl)-N-{2-oxo-2-[2-(2-oxo-1,2-dihydro-3H-indol-3-ylidene)hydrazino]ethyl}-4-phenoxybenzenesulfonamide] | 245 to 246 °C |  |
| CCOc1ccc(S(=O)(=O)N(CC(=O)N/N=C(/C)c2ccccc2O)c2ccc(C)cc2)cc1 [Example 22, 4-ethoxy-N-(2-{2-[1-(2-hydroxyphenyl)ethylidene]hydrazino}-2-oxoethyl)-N-(4-methylphenyl)benzenesulfonamide] | 199 to 200 °C |  |
| CCOc1ccc(S(=O)(=O)N(CC(=O)N/N=C2/C(=O)Nc3ccc([N+](=O)[O-])cc32)c2ccccc2)cc1 [Example 3, 4-ethoxy-N-{2-[2-(5-nitro-2-oxo-1,2-dihydro-3H-indol-3-ylidene)hydrazino]-2-oxoethyl}-N-phenylbenzenesulfonamide] | 252 to 253 °C |  |
| CN(C)CCCOc1ccc(S(=O)(=O)N(CC(=O)N/N=C2\C(=O)Nc3ccncc32)c2ccc(Cl)cc2)cc1 [Example 68, N-(4-chlorophenyl)-4-[3-(dimethylamino)propoxy]-N-{2-oxo-2-[(2Z)-2-(2-oxo-1,2-dihydro-3H-pyrrolo[3,2-c]pyridin-3-ylidene)hydrazino]ethyl}benzenesulfonamide] |  | 78.1 nM |
| Cc1ccc(N(CC(=O)N/N=C2/C(=O)Nc3ccccc32)S(=O)(=O)c2ccc(C)cc2)cc1 [Example 10, 4-methyl-N-(4-methylphenyl)-N-{2-oxo-2-[2-(2-oxo-1,2-dihydro-3H-indol-3-ylidene)hydrazino]ethyl}benzenesulfonamide] | 243 to 244 °C |  |
| CCOc1ccc(S(=O)(=O)N(CC(=O)N2Cc3ccccc3CC2C(N)=O)c2ccc(OC)cc2)cc1 (centres unmarked) [Example 91, 2-({[(4-Ethoxyphenyl)sulfonyl]-4-methoxyanilino}acetyl)-1.2,3,4-tetrahydro-3-isoquinolinecarboxamide] |  | 316 nM |
| CC(C)(C)c1ccc(S(=O)(=O)N(CC(=O)N/N=C2/C(=O)Nc3ccccc32)c2ccc(Cl)cc2)cc1 [Example 26, 4-tert-Butyl-N-(4-chlorophenyl)-N-{2-oxo-2-[(2E)-2-(2-oxo-1,2-dihydro-3H-indol-3-ylidene)hydrazino]ethyl}benzenesulfonamide] | 194 to 195 °C |  |
| CCOc1ccc(S(=O)(=O)N(CC(=O)N/N=C\c2ccccc2F)c2ccc(C)cc2)cc1 [Example 12, 4-ethoxy-N-{2-[2-(2-fluorobenzylidene)hydrazino]-2-oxoethyl}-N-(4-methylphenyl)benzenesulfonamide] | 183 to 184 °C |  |
| Cc1ccc(N(CC(=O)N/N=C2/C(=O)Nc3ccccc32)S(=O)(=O)c2cccc3ccccc23)cc1 [Example 6, N-(4-methylphenyl)-N-{2-oxo-2-[2-(2-oxo-1,2-dihydro-3H-indol-3-ylidene)hydrazino]ethyl}-1-naphthalenesulfonamide] | 138 to 139 °C |  |
| CCOc1ccc(S(=O)(=O)N(CC(=O)N2Cc3ccccc3CC2CC(N)=O)c2ccc(C)cc2)cc1 (centres unmarked) [Example 89, 2-[2-({[(4-Ethoxyphenyl)sulfonyl]-4-methylanilino}acetyl)-1,2,3,4-tetrahydro-3-isoguinolinyl]acetamide] |  | 498 nM |
| CCOc1ccc(S(=O)(=O)N(CC(=O)N/N=C\c2ccc(N(CC)CC)cc2O)c2ccc(C)cc2)cc1 [Example 16, N-(2-{2-[4-(diethylamino)-2-hydroxybenzylidene]hydrazino}-2-oxoethyl)-4-ethoxy-N-(4-methylphenyl)benzenesulfonamide] | 227 to 228 °C |  |
| CCOc1ccc(S(=O)(=O)N(CC(=O)N/N=C2/C(=O)Nc3ccc(S(=O)(=O)O)cc32)c2ccc(C)cc2)cc1 [Example 1, 3-[({[(4-ethoxyphenyl)sulfonyl]-4-methylanilino}acetyl)hydrazono]-2-oxo-2,3-dihydro-H-indole-5-sulfonic Acid] | 318 to 319 °C (dec.) |  |
| CCOc1ccc(S(=O)(=O)N(CC(=O)N/N=C2\C(=O)Nc3ccncc32)c2ccc(Cl)cc2)cc1 [Example 50, N-(4-chlorophenyl)-4-ethoxy-N-{2-oxo-2-[(2Z)-2-(2-oxo-1,2-dihydro-3H-pyrrolo[3,2-c]pyridin-3-ylidene)hydrazino]ethyl}benzenesulfonamide] |  | 57.1 nM |
| CN(C)CCOc1ccc(S(=O)(=O)N(CC(=O)N/N=C2\C(=O)Nc3ccccc32)c2ccc(Cl)cc2)cc1 [Example 57, N-(4-chlorophenyl)-4-[2-(dimethylamino)ethoxy]-N-{2-oxo-2-[(2Z)-2-(2-oxo-1.2-dihydro-3H-indol-3-ylidene)hydrazino]ethyl}benzenesulfonamide] |  | 1.8 nM |
| COc1ccc(N(CC(=O)N2Cc3ccccc3CC2CC(N)=O)S(=O)(=O)c2ccc(OC)c(OC)c2)cc1 (centres unmarked) [Example 82, 2-[2-({[(3,4-Dimethoxyphenyl)sulfonyl]-4-methoxyanilino}acetyl)-1,2,3,4-tetrahydro-3-isoquinolinyl]acetamide] |  | 465 nM |
| O=C(CN(c1ccc(Cl)cc1)S(=O)(=O)c1cccs1)N/N=C1\C(=O)Nc2ccccc21 [Example 36, N-(4-chlorophenyl)-N-{2-oxo-2-[(2Z)-2-(2-oxo-1,2-dihydro-3H-indol-3-ylidene)hydrazino]ethyl}-2-thiophenesulfonamide] |  | 29.3 nM |
| Cc1ccc(N(CC(=O)N2CCc3ccccc3C2)S(=O)(=O)c2ccccc2)cc1 [N-[2-(3,4-Dihydro-1H-isoquinolin-2-yl)-2-oxo-ethyl]-N-p-tolyl-benzenesulfonamide] |  | 472 nM |
| N-(4-chlorophenyl)-4-ethoxy-N-{2-[(2E)-2-(2-hydroxybenzylidene)hydrazino]-2-oxoethyl}benzenesulfonamide [Example 38] |  | 14.8 nM |
